Converted amounts (≈) assume the structure as drawn. Read-outs that look alike come from different tables or passages of the source.
Experiments:
[1] = test system: methicillin-resistant Staphylococcus aureus-222; assay: MIC, clinical isolates; assay type: cell-based; conditions: MRSA / MRSE, read-out: Antibacterial activity (MIC) MRSE^e
Experimental: (§1) The minimum inhibitory concentration of 3H-imidazo[4,5-C]pyridine pleuromutilin onium salt derivatives against the tested pathogenic microorganisms were determined by broth microdilution method, with valnemulin and retapamulin as positive controls.
(§2) The experimental strains included resistant Gram-positive bacteria: Methicillin-resistant S. aureus ATCC 33591; Methicillin-resistant S. aureus ATCC 43300; S. aureus ATCC 29213; Methicillin-resistant S. epidermidis ATCC 51625. Resistant Gram-negative bacteria: A. baumannii ATCC 19606; S. enterica ATCC14028; E. coli ATCC 25922; E. coli CMCC 44103. 9 clinically isolated resistant strains: MRSA-171; MRSA-575; MRSA-206; MRSA-222; MRSA-596; VRE-80; MDR-PA-126; MDR-KP-893; CR-AB-882.
(§3) (1) Preparation of MHB medium: Weigh 18.0 g of MHB medium pre-made powder, add it to 1 L of distilled water, heat and boil until completely dissolved, divide it into conical bottles, sterilize it by high pressure at 121° C. for 15 minutes, and set aside.
(§4) (2) Cultivate the experimental strain to the logarithmic growth phase: Under sterile conditions, inoculate the experimental strain into fresh MHB medium and culture it in a 37° C. constant temperature and humidity incubator for 16-24 hours. Adjust the bacterial solution concentration to 1.5×10^8 CFU/mL and then dilute it 200 times for later use.
(§5) (3) Preparation of storage solution: Weigh the sample to be tested, dissolve it in 1% DMSO solution, and prepare a storage solution with a concentration of 2560 μg/mL; weigh the positive control, dissolve it in sterile distilled water, and prepare a storage solution with a concentration of 2560 μg/mL.
(§6) (4) Preparation of bacterial suspension: Under sterile conditions, the experimental strain cultured to the logarithmic growth phase was calibrated to a 0.5 McFarland unit turbidity standard using MHB medium and then diluted at a ratio of 1:200 to prepare a bacterial suspension with a concentration of 5×10^5 CFU/mL for later use.
(§7) (5) Determination of MIC by two-fold microdilution method: Take a sterile 96-well plate, add 10 μL of the test compound at a concentration of 2560 μg/mL, and perform serial dilutions by the two-fold dilution method. At the same time, set up a negative control group without drug. Then add 190 μL of diluted bacterial solution to each well, so that the final bacterial solution concentration in each well is 5×10^5 CFU/mL, and incubate in a 37° C. constant temperature and humidity chamber for 24 hours.

[2] = test system: methicillin-resistant Staphylococcus aureus-206; assay: MIC, clinical isolates; assay type: cell-based; conditions: MRSA, read-out: Antibacterial activity (MIC) MRSA^d
Experimental: as §1, §2, §3, §4, §5, §6, §7

[3] = test system: multidrug-resistant Pseudomonas aeruginosa-126; assay: MIC, clinical isolates; assay type: cell-based; conditions: read-out: Antibacterial activity (MIC) MDR-PA^h
Experimental: as §1, §2, §3, §4, §5, §6, §7

[4] = test system: multidrug-resistant Klebsiella pneumoniae-893; assay: MIC, clinical isolates; assay type: cell-based; conditions: clinical isolate MDR-KP-893
Experimental: as §1, §2, §3, §4, §5, §6, §7

[5] = test system: methicillin-resistant Staphylococcus aureus-596; assay: MIC, clinical isolates; assay type: cell-based; conditions: MRSA, read-out: Antibacterial activity (MIC) MRSA^f
Experimental: as §1, §2, §3, §4, §5, §6, §7

[6] = test system: vancomycin-resistant Enterococcus-80; assay: MIC, clinical isolates; assay type: cell-based; conditions: VRE, read-out: Antibacterial activity (MIC) VRE^g
Experimental: as §1, §2, §3, §4, §5, §6, §7

[7] = test system: methicillin-resistant Staphylococcus aureus-171; assay: MIC, clinical isolates; assay type: cell-based; conditions: MRSA, read-out: Antibacterial activity (MIC) MRSA^b
Experimental: as §1, §2, §3, §4, §5, §6, §7

[8] = test system: carbapenem-resistant Acinetobacter baumannii-882; assay: MIC, clinical isolates; assay type: cell-based; conditions: read-out: Antibacterial activity (MIC) CR-AB^j
Experimental: as §1, §2, §3, §4, §5, §6, §7

[9] = test system: methicillin-resistant Staphylococcus aureus-575; assay: MIC, clinical isolates; assay type: cell-based; conditions: MRSA, read-out: Antibacterial activity (MIC) MRSA^c
Experimental: as §1, §2, §3, §4, §5, §6, §7

[10] = test system: S. aureus ATCC 29213; assay: MIC, broth microdilution; assay type: cell-based; conditions: Staphylococcus aureus, ATCC29213, read-out: Minimum inhibitory concentration S.a.^d
Experimental: as §1, §2, §3, §4, §5, §6, §7

[11] = test system: E.coli CMCC 44103; assay: MIC, broth microdilution; assay type: cell-based; conditions: Escherichia coli, CMCC44103, read-out: Minimum inhibitory concentration E.c.^i
Experimental: as §1, §2, §3, §4, §5, §6, §7

[12] = test system: Methicillin-resistant S. epidermidis ATCC 51625; assay: MIC, broth microdilution; assay type: cell-based; conditions: Staphylococcus epidermidis, ATCC 51625 / MRSE, read-out: Minimum inhibitory concentration MRSE^e
Experimental: as §1, §2, §3, §4, §5, §6, §7

[13] = test system: Methicillin-resistant S. aureus ATCC 33591; assay: MIC, broth microdilution; assay type: cell-based; conditions: Staphylococcus aureus, ATCC 33591 / MRSA, read-out: Minimum inhibitory concentration MRSA^b
Experimental: as §1, §2, §3, §4, §5, §6, §7

[14] = test system: A. baumannii ATCC 19606; assay: MIC, broth microdilution; assay type: cell-based; conditions: Acinetobacter baumannii, ATCC19606, read-out: Minimum inhibitory concentration A.b.^f
Experimental: as §1, §2, §3, §4, §5, §6, §7

[15] = test system: S. enterica ATCC14028; assay: MIC, broth microdilution; assay type: cell-based; conditions: Salmonella enterica, ATCC14028, read-out: Minimum inhibitory concentration S.e.^g
Experimental: as §1, §2, §3, §4, §5, §6, §7

[16] = test system: Methicillin-resistant S. aureus ATCC 43300; assay: MIC, broth microdilution; assay type: cell-based; conditions: Staphylococcus aureus, ATCC 43300 / MRSA, read-out: Minimum inhibitory concentration MRSA^c
Experimental: as §1, §2, §3, §4, §5, §6, §7

[17] = test system: E. coli ATCC 25922; assay: MIC, broth microdilution; assay type: cell-based; conditions: Escherichia coli, ATCC25922, read-out: Minimum inhibitory concentration E.c.^h
Experimental: as §1, §2, §3, §4, §5, §6, §7

[18] = test system: HEK293 Cells; assay: Cytotoxicity, Cell Counting Kit-8; assay type: cell-based
Experimental: (§8) Cell Counting Kit-8 was used to evaluate the cytotoxicity of the compounds.
(§9) (4) Cell culture: HepG2, HEK293 and A549 cells were evenly dispersed in culture medium, seeded into 96-well plates, and cultured under appropriate environmental conditions to keep the cells completely attached to the well walls.
(§10) (5) Compound treatment: Add different concentrations of compounds I-8 and I-9 to each well (the concentrations are 0.78, 1.56, 3.13, 6.25, 12.5, 25, 50 and 100 μM, respectively, and perform 6 parallel experiments). Set up a blank control group and a normal control group. After incubation for 24 hours, observe the cell condition, which observed under a microscope.
(§11) (6) CCK-8 solution treatment: Add CCK-8 solution to each well and incubate for 4 hours to allow it to react with the cells.
(§12) (7) Absorbance determination: Use a full-wavelength scanning multifunctional reader, place the 96-well plate in the instrument, oscillate to mix to make the color evenly distributed, and measure the absorbance value at 490 nm.
(§13) (8) Data analysis: Based on the measured absorbance values, the cell survival rate at different concentrations can be calculated. The median cytotoxic concentration was used to evaluate the cytotoxicity of the compound to A549, HEK293 and HepG2 cells.

[19] = test system: HepG2 Cells; assay: Cytotoxicity, Cell Counting Kit-8; assay type: cell-based
Experimental: as §8, §9, §10, §11, §12, §13

[20] = test system: A549 Cells; assay: Cytotoxicity, Cell Counting Kit-8; assay type: cell-based
Experimental: as §8, §9, §10, §11, §12, §13

[21] = test system: Staphylococcus aureus (MRSA, ATCC 33591); assay: Mouse MRSA systemic infection model, survival rate; assay type: in vivo; conditions: MRSA-infected mice, 5, 10, 20 mg/kg single intraperitoneal injection 1 hour after infection, 7-day survival
Experimental: (§14) Establishment of a mouse model of MRSA systemic infection
(1) Solution preparation and bacterial activation: Reference Example 15.
(§15) (2) Pretreatment: All mice received cyclophosphamide treatment, with the first intraperitoneal injection of 150 mg/kg cyclophosphamide 4 days before infection and the second intraperitoneal injection of 100 mg/kg cyclophosphamide 1 day before infection.
(3) Control group treatment: Mice in the blank control group received intraperitoneal injection of 0.9% saline.
(4) Infection process: Mice were anesthetized with isoflurane and infected by intraperitoneal injection of Staphylococcus aureus (MRSA, ATCC 33591) at a concentration of 10^7 CFU/mL.
(1) Experimental groups: The doses of compound i and valnemulin were 5, 10, and 20 mg/kg, respectively (the solvent was dimethyl sulfoxide: Tween-80: sterile water=1:0.5:9.5);
A model control group (administered with a solvent after infection with bacteria) and a blank control group (administered with a solvent only without infection with bacteria) were set up, with 10 mice in each group, half of which were male and half were female.
(2) Time point: Intraperitoneal injection was performed in the experimental group mice at 1 hour after infection.
(3) Therapeutic dose: The mice in the experimental groups received intraperitoneal injection of 0.5 mL of compound i and valnemulin at different concentrations. […]

[22] = test system: Staphylococcus aureus (MRSA, ATCC 33591); assay: Mouse MRSA systemic infection model, H&E tissue sections; assay type: in vivo; conditions: MRSA-infected mice
Experimental: as §14, §15
(4) Infection process: Mice were anesthetized with isoflurane and infected by intraperitoneal injection of Staphylococcus aureus (MRSA, ATCC 33591) at a concentration of 10^7 CFU/mL. […]
(2) Processing: • (a) Time point: At the first hour after infection, mice in the experimental group received intraperitoneal injection of 0.5 mL of compounds of different concentrations, while mice in the control group received the same volume of solvent. • (b) Treatment time: […]
Part II: The samples were fixed with 10% formalin buffer, then embedded in paraffin and sectioned. The sections were stained with hematoxylin and eosin (H&E) and then examined under an optical microscope.

[23] = 5 mg/kg compound i, intraperitoneal

For `C=C[C@]1(C)C[C@@H](OC(=O)CSc2nc3cc[n+](Cc4ccc(C#N)cc4)cc3[nH]2)[C@]2(C)[C@H](C)CC[C@]3(CCC(=O)[C@H]32)[C@@H](C)[C@@H]1O` [Compound h, 5-(4-cyanobenzyl)-2-((2-(((3aR,4R,5R,7S,8S,9R,9aS,12R)-8-hydroxy-4,7,9,12-tetramethyl-3-oxo-7-vinyldecahydro-4,9a-propancyclopenta[8]cyclo-5-yl)oxy)-2-oxoethyl)thio)-3H-imidazo[4,5-C]pyridine-5-ium], the MIC [1] was 16 µg/mL, the MIC [2] was 4 µg/mL and the MIC [3] was 32 µg/mL. For the same molecule, the “Antibacterial activity (MIC) MDR-KP^i” value [4] was 16 µg/mL, the MIC [5] was 8 µg/mL and the MIC [6] was 2 µg/mL. The MIC [7] was 16 µg/mL, the MIC [8] was 64 µg/mL and the MIC [9] was 32 µg/mL. It also gave an MIC [10] of 0.5 µg/mL, an MIC [11] of 2 µg/mL and an MIC [12] of 0.25 µg/mL. The MIC [13] was 2 µg/mL, the MIC [14] was 1 µg/mL and the MIC [15] was 2 µg/mL. It also gave an MIC [16] of 0.5 µg/mL, an MIC [17] of 0.5 µg/mL and a CC50 ([18]; CCK-8, 24 hours incubation, read-out: CC50 HEK293 Cells) greater than 100 µM. For the same molecule, the CC50 ([19]; CCK-8, 24 hours incubation, read-out: CC50 HepG2 Cells) was 96.3 µM and the CC50 ([20]; CCK-8, 24 hours incubation, read-out: CC50 A549 Cells) was greater than 100 µM.
`C=C[C@]1(C)C[C@@H](OC(=O)CSC(C)(C)CNC(=O)[C@H](N)C(C)C)[C@]2(C)[C@H](C)CC[C@]3(CCC(=O)[C@H]32)[C@@H](C)[C@@H]1O` [Valnemulin, reference compound] was tested, and the “survival rate of mice” value [21] was “improved”, the “kidney H&E histology” value [22, 23] was “inflammatory cell infiltration was still observed” and the “liver H&E histology” value [22, 23] was “still had inflammatory cell infiltration”. For the same molecule, the “lung H&E histology” value [22, 23] was “alleviated, but they still did not return to normal”, the “spleen H&E histology” value ([22]; 5 mg/kg, after 7 days of treatment) was “immune response was weakened” and the MIC [10] was 4 µg/mL (≈ 7.08 µM). For the same molecule, the MIC [11] was 64 µg/mL (≈ 113 µM), the MIC [12] was 64 µg/mL (≈ 113 µM) and the MIC [13] was 64 µg/mL (≈ 113 µM). The MIC [14] was 2 µg/mL (≈ 3.54 µM), the MIC [15] was 64 µg/mL (≈ 113 µM) and the MIC [16] was 8 µg/mL (≈ 14.2 µM). For the same molecule, the MIC [17] was 16 µg/mL (≈ 28.3 µM), the CC50 ([18]; human, 24 h) was 65.4 µM and the CC50 ([19]; human, 24 h) was 77.3 µM. For the same molecule, the CC50 ([20]; human, 24 h) was 53.7 µM.

— patent US12275734B1, “Pleuromutilin onium salt derivative containing a 3H-imidazo[4,5-c]pyridine side chain, and a preparation method and application thereof” (SHAANXI UNIVERSITY OF SCIENCE AND TECHNOLOGY, priority 2024, dated 2025)
